# Results from patent publication US9226503B2, “Composition and method for attraction of emerald ash borer Agrilus planipennis fairmaire (coleoptera: buprestidae)” (Her Majesty the Queen in Right of Canada, as represented by …, priority 2011, dated 2016).
# Columns and labels:
# A. planipennis [1] = assay: Two-choice Y-tube olfactometer assay; assay type: in vivo, Agrilus planipennis; settings: males; lactone 10 μg, (3Z)-hexenol 5 μg; chi-square test
# Method: A Y-tube olfactometer (Analytical Research Systems Inc, Gainsville, Fla.) was used to test for attraction of A. planipennis to lactone isomers and host volatiles. […] Each arm was connected to a cylinder that contained the stimulus. Charcoal filtered air was passed into each arm at a flow rate of 1.2 L/min. Treatments included the pheromone alone: (3Z)-lactone (10 μg); (3E)-lactone (10 μg); and 60:40 (3E):(3Z)-lactone (10 μg). Next, we tested bark sesquiterpenes and a green leaf volatile alone: Phoebe oil (25 μg and 2.5 μg) and (3Z)-hexenol (5 μg). We then tested the pheromone combined with bark sesquiterpenes: (3Z)-lactone (10 μg)+Phoebe oil (at both 25 μg and 2.5 μg); (3E)-lactone (10 μg)+Phoebe oil (at both 25 μg and 2.5 μg). Finally, we tested the pheromone combined with the green leaf volatile: (3Z)-lactone (10 μg)+(3Z)-hexenol (5 μg); and (3E)-lactone (10 μg)+(3Z)-hexenol (5 μg). Each stimulus (l μl for single compound treatments and a total of 2 μl for two-compound treatments) was diluted in hexane, placed on a strip of filter paper and given one minute for the solvent to evaporate before being placed in the olfactometer. A second filter paper, treated with the equivalent volume of solvent was placed in the other arm of the olfactometer to serve as the control. The apparatus was rinsed with acetone after each treatment, and the arm attached to the test stimulus was randomized between replicates.
# For each treatment, we tested increasing numbers of adults until we obtained a minimum of 12 beetles responding to the stimuli (either positively or negatively). To obtain this minimum, we tested 15-54 beetles per treatment. For each trial, a single A. planipennis (mature virgin male or female, >10 days old) was given ten minutes to choose between the two stimuli; adults were used only once in the bioassay. […] A chi-square test was conducted for each independent trial.
# A. planipennis [2] = assay: Field trapping experiment 2 (2009), purple prism traps, Ontario; assay type: in vivo, Agrilus planipennis; settings: as compared to the Phoebe oil alone
# Method: Field trapping. Three trapping experiments were carried out in green ash plantations (F. pennsylvanica Marsch) with low-to-moderate A. planipennis populations about 40 km southeast of Sarnia, Ontario (42° 58′ 0 N, 82° 24′ 0 W) in 2008, 2009 and 2010. Trees at these sites were generally healthy in appearance with low or no signs of decline, and only a small number of trees had obvious signs/symptoms of infestation by A. planipennis. In Ontario sites, trees were 20-25 years old, 4-6 m tall, 10-15 cm in diameter, and spaced about 2 m apart within a row and 2.5 m between rows. In 2010, the trapping experiment was replicated at four sites in Michigan, USA, in addition to the sites in Ontario. Sites in Michigan were 10-100 years old, 10-30 m tall, 15-70 cm in diameter, and located in a mixed woodlot. […] Traps were checked every 2 weeks and A. planipennis were collected, counted and sexed. […]
# The effect of each attractant on mean catch of female and male A. planipennis was analyzed independently using ANOVA and a randomized complete block design. Sites were analyzed separately in 2009 due to differences in sex ratios. In 2010, sites in Ontario were analyzed separately from those in Michigan due to the considerable differences in stand conditions and height of traps with respect to the ash canopy. […]
smiles,measurement,setting,value
"O=C1C/C=C/CCCCCCCCO1 [(3E)-lactone, (3E)-dodecen-12-olide]",attraction of males in Y-tube olfactometer vs hexane control,A. planipennis [1],significantly attracted
same,"number of male or female A. planipennis captured, effect of lactone alone or with Phoebe oil",A. planipennis [2],"neither (3Z) nor (3E)-lactone alone, or in combination with Phoebe oil, significantly increased"
"O=C1C/C=C\CCCCCCCCO1 [(3Z)-lactone, (3Z)-dodecen-12-olide]",attraction of males in Y-tube olfactometer vs hexane control,A. planipennis [1],not
same,"number of male or female A. planipennis captured, effect of lactone alone or with Phoebe oil",A. planipennis [2],"neither (3Z) nor (3E)-lactone alone, or in combination with Phoebe oil, significantly increased"
